Results taken from patent publication US20120093917A1, “METNASE AND INTNASE INHIBITORS AND THEIR USE IN TREATING CANCER” (priority 2009, published 2012).

Assays:
[1] = test system: human Pancreatic cancer cell line BXPC3; experiment: Colony formation assay, pancreatic cancer cell line BXPC3; format: cell-based; conditions: for BxPC3 Pancreatic activity: summary table / FIG. 34; for potentiation of gemcitabine (surviving colonies) / activity on their own against the pancreatic cancer cells (surviving colonies): BXPC3, FIG. 16; for potentiation of gemcitabine (surviving colonies): 2 μM inhibitor + 0.3 μg/ml gemcitabine, 18 hrs, normalized to gemcitabine; for activity on their own against the pancreatic cancer cells (surviving colonies): 2 μM inhibitor, 18 hrs treatment, colonies after 14 days, normalized to DMSO
Protocol: (§1) The human Pancreatic cancer cell line BXPC3 was plated (4000 cells per plate with a ˜10% plating efficiency) in 10 cm dishes, using 10 ml of RPMI media (always with 10% FBS) per plate, and placed in a […] incubator (5% CO2) for 24 hrs. After 24 hrs, each plate was treated with one or a combination of the following agents: DMSO (0.2% in solution), 0.3 μg/ml of gemcitabine (dissolved in 1×PBS), and/or 2 μM of each Metnase/Intnase inhibitor (dissolved in DMSO). When the DMSO, gemcitabine, and/or inhibitors were added, the plates were swirled several times to assure mixing. After the agents were added to the RPMI, the plates were put back into the incubators for 18 hrs. Following 18 hrs treatment, the media was removed and the cells were washed twice with 1×PBS. Ten ml of fresh RPMI with 10% FBS was added and the cells were placed back into the incubator for 14 days. After the incubation period that will allow surviving cells to form colonies, the media was discarded and surviving colonies were stained with methylene blue. Colonies, a reflection of a single surviving cell that expanded, were counted to measure survival. All experiments were run in triplicate. Experiments were normalized to either DMSO (black asterices) or gemcitabine (red asterices).

[2] = test system: human myeloid cell line KG-1; experiment: Leukemia cell line KG-1 growth curve, alone or with VP-16; format: cell-based; conditions: for effect of compound alone on KG-1 growth, high dose: high (higher) dose of compound (added at 2 uM and 5 uM); for effect of compound alone on KG-1 growth, high dose / potentiation of low dose VP-16 on KG-1 growth, high dose of compound / effect of compound alone on KG-1 growth, lower/low dose / potentiation of low dose VP-16 on KG-1 growth, lower/low dose of compound: counted daily for 4 days; for potentiation of low dose VP-16 on KG-1 growth, high dose of compound: high (higher) dose of compound + VP-16 0.05 uM; for effect of compound alone on KG-1 growth, lower/low dose: lower (low) dose of compound (added at 2 uM and 5 uM); for potentiation of low dose VP-16 on KG-1 growth, lower/low dose of compound: lower (low) dose of compound + VP-16 0.05 uM; for KG-1 Leukemia potency / KG-1 Leukemia cooperativity with VP-16: summary table / FIG. 34
Protocol: (§2) The human myeloid cell line KG-1 was grown in RPMI1640 with 10% FBS. The small cell lung cancer cell line CRL5898 was grown in HITES medium (Dulbecco's medium: Ham's F12, 50:50 mix, Insulin 0.005 mg/ml Transferrin 0.01 mg/ml Sodium selenite 30 nM Hydrocortisone 10 nM beta-estradiol 10 nM HEPES 10 mM L-glutamine 2 mM (in addition to that in the base medium)). Both cell lines were seeded at 10,000 cells/ml in the appropriate medium in 6 well plates. The Chem Div compounds were resuspended as 5 mM stock solutions in DMSO. The Chem Div compounds were added alone at 2 uM and 5 uM or in combination with VP-16 (also called etoposide) at 0.05 uM. DMSO was added to the control wells. Cells were plated and treated in triplicate and counted daily for 4 days.

cancer cells = experiment: Summary statements: cytotoxicity for cancer cells alone and with chemotherapy; format: cell-based; conditions: summary statement referring to figures
Protocol: as §1
(§3) The human colon cancer cell line SW48 was plated (1000 cells per plate with a ˜20% plating efficiency) in 10 cm dishes, using 10 ml of DMEM media (always with 10% FBS) per plate, and placed in a […] incubator (5% CO2) for 24 hrs. After 24 hr, each plate was treated with one or a combination of the following agents: DMSO (0.2% in solution), 3 μM 5-fluorouracil (5FU, dissolved in 1×PBS), and/or 2 μM of each Metnase/intnase inhibitor (dissolved in DMSO). When the DMSO, 5FU, and/or inhibitors were added, the plates were swirled several times to assure mixing. After agents were added to the DMEM, the plates were put back into the incubators for 18 hr. Following 18 hr treatment, the media was removed and the cells were washed twice with 1×PBS. Ten milliliters of fresh DMEM was added and the cells were placed back into the incubator for 7-14 days. After the incubation period that will allow surviving cells to grow and form colonies, media was discarded and surviving colonies were stained with methylene blue. Colonies, a reflection of a single surviving cell that expanded, were counted to measure survival. All experiments were run in triplicate. Experiments were normalized to either DMSO (black asterices) or 5FU (red asterices).
as §2

[3] = test system: small cell lung cancer cell line CRL5898; experiment: Small cell lung cancer cell line CRL5898 growth, alone or with VP-16; format: cell-based; conditions: for CLR5898 Small Cell Lung Cancer cooperativity with VP-16 / CLR5898 Small Cell Lung Cancer potency: summary table / FIG. 34
Protocol: as §2

[4] = test system: human colon cancer cell line SW48; experiment: Colony formation assay, colon cancer cell line SW48; format: cell-based; conditions: FIG. 17; for activity on their own against the colon cancer cells (surviving colonies): 2 μM inhibitor, 18 hr treatment, colonies after 7-14 days, normalized to DMSO
Protocol: as §3

CYP3A = conditions: cited from earlier work
[5] = in vivo; cited from earlier work

Row | Structure (SMILES) | BxPC3 Pancreatic activity [1] | effect of compound alone on KG-1 growth, high dose [2] | potentiation of low dose VP-16 on KG-1 growth, high dose of compound [2] | effect of compound alone on KG-1 growth, lower/low dose [2] | potentiation of low dose VP-16 on KG-1 growth, lower/low dose of compound [2] | KG-1 Leukemia potency [2] | cytotoxicity for cancer cells with chemotherapy agents (potentiation) (cancer cells) | cytotoxicity for cancer cells, compound alone (cancer cells) | KG-1 Leukemia cooperativity with VP-16 [2] | CLR5898 Small Cell Lung Cancer cooperativity with VP-16 [3] | CLR5898 Small Cell Lung Cancer potency [3] | potentiation of gemcitabine (surviving colonies) [1] | activity on their own against the pancreatic cancer cells (surviving colonies) [1] | potentiation of 5FU (surviving colonies) ([4]; 2 μM inhibitor + 3 μM 5-fluorouracil, 18 hr, normalized to 5FU) | activity on their own against the colon cancer cells (surviving colonies) [4] | potentiation of low dose VP-16 on CRL5898 cell growth ([3]; FIG. 33) | effect of compound alone on CRL5898 cell growth ([3]; FIG. 33, compared with low dose VP-16) | CYP3A induction (CYP3A) | Serum half-life [5] [h]
1 | CCn1cc(C(C)=O)c(=O)c2cc(F)c(N3CCN(C(=O)c4ccc(Cl)cc4)CC3)cc21 [5076-4170] | inactive | slowed the growth of the leukemia cell line KG-1 and caused cell death with prolonged treatment | some potentiation on the anti-proliferative effect of low dose VP-16 | slowed the growth of the leukemia cell line KG-1 and caused cell death with prolonged treatment | some potentiation on the anti-proliferative effect of low dose VP-16 | High potency, probably below 1 uM. | increased the cytotoxicity of chemotherapy when added | cytotxoic for cancer cells alone | – | – | – | – | – | – | – | – | – | – | –
2 | CCn1cc(C(=O)O)c(=O)c2cc(F)c(N3CCN(C(=O)c4ccc(OC(C)=O)cc4)CC3)cc21 [5082-2438] | weak | decreased KG-1 leukemia cell growth, similar to low dose VP-16 alone | potentiated the anti-proliferative effect of low dose VP-16 and prolonged treatment resulted in cell death | decreased KG-1 leukemia cell growth, similar to low dose VP-16 alone | potentiated the effect of low dose VP-16 and prolonged treatment resulted in cell death | Potency in uM | increased the cytotoxicity of chemotherapy when added | cytotxoic for cancer cells alone | Cooperativity with VP-16 | No or very | Potency in uM | – | – | – | – | – | – | – | –
3 | CC(C)n1cc(C(=O)O)c(=O)c2ccccc21 [5483-0023] | Active | decreased KG-1 leukemia cell growth especially with longer treatment | potentiated the anti-proliferative effect of low dose VP-16 | decreased KG-1 leukemia cell growth, similar to low dose VP-16 | potentiated the anti-proliferative effect of low dose VP-16 | Potency in uM | increased the cytotoxicity of chemotherapy when added | cytotxoic for cancer cells alone | Cooperativity with VP-16 | No or very | Potency in uM | potentiate gemcitabine | activity on their own | potentiate 5FU | activity on their own | – | – | – | –
4 | Cc1ccc(NCC(=O)Nc2cccc(C(=O)O)c2O)cc1 [8017-3379] | inactive | inhibited KG-1 leukemia cell growth even more than low dose VP-16 alone | no potentiation on the effect of low dose VP-16 | inhibited KG-1 leukemia cell growth even more than low dose VP-16 alone | no potentiation on the effect of low dose VP-16 | Potency in uM | – | cytotxoic for cancer cells alone | No or very weak | No or very | Potency in uM | – | – | – | – | some potentiation of the anti-proliferative effect of low dose VP-16 | inhibited cell growth of the small cell lung cancer cell line CRL5898, the same as low dose VP-16 | – | –
5 | O=C(O)c1ccc(N2C(=O)Nc3ccccc3N2O)cc1O [D0045-0007] | – | – | – | decreased KG-1 leukemia cell growth compared to control | potentiated the anti-proliferative effect of low dose VP-16 | – | increased the cytotoxicity of chemotherapy when added | cytotxoic for cancer cells alone | – | – | – | potentiate gemcitabine | activity on their own | – | activity on their own | – | – | – | –
6 | COc1cc2c(cc1Cc1cccc(Cl)c1F)c(=O)c(C(=O)O)cn2[C@H](CO)C(C)C [Elvitegravir, 6-[(3-chloro-2-fluorophenyl)methyl]-1-[(2S)-1-hydroxy-3-methylbutan-2-yl]-7-methoxy-4-oxoquinoline-3-carboxylic acid, reference compound] | – | – | – | – | – | – | – | cytotoxic for cancer cells alone | – | – | – | potentiate gemcitabine | activity on their own | – | – | – | – | moderate CYP3A inducer | 3
7 | COc1ccc(Cn2c(C)c(CNC(C)c3ccccc3)c(C(=O)O)c2C)cc1 (centres unmarked) [G396-1171] | inactive | decreasedKG-1 leukemia cell growth, similar to low dose VP-16 alone | potentiated the anti-proliferative effect of low dose VP-16 | decreased KG-1 leukemia cell growth, similar to low dose VP-16 alone | potentiated the anti-proliferative effect of low dose VP-16 | Potency in uM | increased the cytotoxicity of chemotherapy when added | cytotxoic for cancer cells alone | Cooperativity with VP-16 | No | Potency in uM | – | – | – | – | – | – | – | –
8 | O=C(O)c1cc(=O)c2ccccc2o1 [R092-0025] | – | – | – | – | – | – | increased the cytotoxicity of chemotherapy when added | cytotxoic for cancer cells alone | – | – | – | potentiate gemcitabine | activity on their own | – | activity on their own | – | – | – | –
